Assay results taken from patent US20090048214A1, “Methods for Treating Renal Tumors Using 2, 4-Pyrimidinediamine Drug and Prodrug Compounds” (RIGEL PHARMACEUTICALS, INC, priority 2006, published 2009).

How the values were obtained:
K-562 = settings: K-562, Leukemia; besylate salt
HOP-62 = settings: HOP-62, Non-Small Cell Lung Cancer; besylate salt
HCC-2998 [1] = settings: HCC-2998, Colon Cancer; besylate salt
HCT-15 [2] = settings: HCT-15, Colon Cancer; besylate salt
SF-295 = settings: SF-295, CNS Cancer; besylate salt
SNB-19 = settings: SNB-19, CNS Cancer; besylate salt
SNB-75 [3] = settings: SNB-75, CNS Cancer; besylate salt
HL-60(TB) = experiment: cells; settings: Homo sapiens
SK-MEL-2 = settings: SK-MEL-2, Melanoma; besylate salt
SK-MEL-5 = settings: SK-MEL-5, Melanoma; besylate salt
UACC-62 = settings: UACC-62, Melanoma; besylate salt
OVCAR-3 [4] = settings: OVCAR-3, Ovarian Cancer; besylate salt
OVCAR-4 = settings: OVCAR-4, Ovarian Cancer; besylate salt
OVCAR-8 [5] = settings: OVCAR-8, Ovarian Cancer; besylate salt
786-0 [6] = settings: 786-0, Renal Cancer; besylate salt
PC-3 = settings: PC-3, Prostate Cancer; besylate salt
DU-145 [7] = settings: DU-145, Prostate Cancer; besylate salt
MDA-MB-435 [8] = settings: MDA-MB-435, Breast Cancer; besylate salt
NCI-H460 = experiment: cells; settings: Homo sapiens, NCI-H460, read-out: LC50
NCI-H522 = experiment: cells; settings: Homo sapiens, NCI-H522, read-out: LC50
COLO 205 = experiment: cells; settings: Homo sapiens
HCC-2998 [9] = experiment: cells; settings: Homo sapiens
HCT-116 = experiment: cells; settings: Homo sapiens, HCT-116, read-out: LC50
HCT-15 [10] = experiment: cells; settings: Homo sapiens, HCT-15, read-out: LC50
HT29 = experiment: cells; settings: Homo sapiens
SNB-75 [11] = experiment: cells; settings: Homo sapiens
SK-MEL-28 = experiment: cells; settings: Homo sapiens
OVCAR-3 [12] = experiment: cells; settings: Homo sapiens
OVCAR-8 [13] = experiment: cells; settings: Homo sapiens
786-0 [14] = experiment: cells; settings: Homo sapiens
ACHN = experiment: cells; settings: Homo sapiens
CAKI-1 = experiment: cells; settings: Homo sapiens
UO-31 = experiment: cells; settings: Homo sapiens
DU-145 [15] = experiment: cells; settings: Homo sapiens, DU-145, read-out: LC50
NCI/ADR-RES = experiment: cells; settings: Homo sapiens
HS 578T = experiment: cells; settings: Homo sapiens
MDA-MB-435 [16] = experiment: cells; settings: Homo sapiens
BT-549 = experiment: cells; settings: Homo sapiens

COc1cc(Nc2ncc(F)c(Nc3ccc4c(n3)NC(=O)C(C)(C)O4)n2)cc(OC)c1OC [Compound 1]
0.873 µM: IC50 (786-0 [14]; 786-0, read-out: G150)
2.43 µM: IC50 (BT-549; BT-549, read-out: G150)
0.596 µM: IC50 (UO-31; UO-31, read-out: G150)
0.871 µM: IC50 (SNB-75 [11]; SNB-75, read-out: G150)
7.26 µM: IC50 (COLO 205; COLO 205, read-out: G150)
> 100 µM: IC50 (HL-60(TB); HL-60, read-out: G150) | CC50 (HL-60(TB); HL-60, read-out: LC50) | CC50 (NCI-H460) | CC50 (NCI-H522) | CC50 (COLO 205; COLO 205, read-out: LC50) | IC50 (HCC-2998 [9]; HCC 2998, read-out: G150) | CC50 (HCC-2998 [9]; HCC 2998, read-out: LC50) | CC50 (HCT-116) | CC50 (HCT-15 [10]) | CC50 (HT29; HT-29, read-out: LC50) | CC50 (SNB-75 [11]; SNB-75, read-out: LC50) | IC50 (SK-MEL-28; SK-MEL-28, read-out: G150) | CC50 (SK-MEL-28; SK-MEL-28, read-out: LC50) | IC50 (OVCAR-3 [12]; OVCAR-3, read-out: G150) | CC50 (OVCAR-3 [12]; OVCAR-3, read-out: LC50) | IC50 (OVCAR-8 [13]; OVCAR-8, read-out: G150) | CC50 (OVCAR-8 [13]; OVCAR-8, read-out: LC50) | CC50 (786-0 [14]; 786-0, read-out: LC50) | CC50 (ACHN; read-out: LC50) | CC50 (CAKI-1; CAKI-1, read-out: LC50) | CC50 (UO-31; UO-31, read-out: LC50) | CC50 (DU-145 [15]) | IC50 (NCI/ADR-RES; read-out: G150) | CC50 (NCI/ADR-RES; read-out: LC50) | CC50 (HS 578T; read-out: LC50) | CC50 (MDA-MB-435 [16]; MDA-MB-435, read-out: LC50) | CC50 (BT-549; BT-549, read-out: LC50)
2.19 µM: IC50 (HT29; HT-29, read-out: G150)
1.24 µM: IC50 (ACHN; read-out: G150)
3.62 µM: IC50 (MDA-MB-435 [16]; MDA-MB-435, read-out: G150)
>1.00E−4: TGI (K-562) | TGI (HOP-62) | TGI (HCC-2998 [1]) | TGI (HCT-15 [2]) | TGI (SF-295) | TGI (SNB-19) | TGI (SNB-75 [3]) | TGI (SK-MEL-2) | TGI (SK-MEL-5) | TGI (UACC-62) | TGI (OVCAR-3 [4]) | TGI (OVCAR-4) | TGI (OVCAR-8 [5]) | TGI (786-0 [6]) | TGI (PC-3) | TGI (DU-145 [7]) | TGI (MDA-MB-435 [8])
1.19 µM: IC50 (HS 578T; read-out: G150)
0.0515 µM: IC50 (CAKI-1; CAKI-1, read-out: G150)
